# Data: patent US20080207605A1, “Combination therapy for the treatment of liver diseases” (priority 2007, published 2008)
# Columns and labels:
# [1] = test system: male C57B1/6 mice; experiment: TNF-α model of liver injury (TNFα/D-Gln), plasma ALT activity; assay type: in vivo; conditions: PO by gavage 30 minutes before D-Gln/TNFα insult; blood 6 hours later; average from 4 studies
# Procedure: (§1) TNF-α is a cytokine that is implicated in inducing liver injury in a variety of acute and chronic liver diseases such as chronic HCV and acute liver failure. An exemplary in vivo model to test pharmacological agents against TNF-α induced injury is the TNF-α/D-Gal model of liver injury in mice. In this model, mice are treated with TNF-α/D-Gal and compound is administered to evaluate its ability to protect against liver damage. The compound is administered either before, at the time of or after the treatment with TNF-α/D-Gal, and followed for a period of approximately 6 hours. Allowing this model to persist past 6 hours is a variation used to determine the improved survival afforded by compound treatment.
# (§2) In vivo efficacy of RO-113-0830 was assessed using male C57B1/6 mice (Simonsen Labs) in two well-established models of liver damage. The mice were allowed to acclimate for at least three days.
# In the TNF-α model of liver injury, D-Galactosamine (D-Gln) (800 mg/kg) and TNFα (20 or 40 μg/kg) were injected IP. RO-113-0830 (0.001-30 mg/kg) was administered PO by gavage 30 minutes before insult. Six hours later, animals were anesthetized with Nembutal (50 mg/kg IP), and blood was taken by cardiac puncture. Plasma ALT activity was determined using a kit from Sigma-Aldrich.
# [2] = test system: male C57B1/6 mice; experiment: Fas driven model of liver damage (Jo-2 antibody), plasma ALT activity; assay type: in vivo; conditions: 10 mg/kg PO; 6 hours after Jo-2 IV; average of 2 studies; p<0.05 in each study
# Procedure: as §2
# In a Fas driven model of liver damage, an activating antibody to Fas (Jo-2) was administered IV. Six hours later, animals were anesthetized with Nembutal (50 mg/kg IP), and blood was taken by cardiac puncture. Plasma ALT activity was determined using a kit from Sigma-Aldrich.
# [3] = test system: C57/BL6 wild-type mice; experiment: Bile duct ligation model of liver fibrosis; assay type: in vivo; conditions: 10 mg/kg by gavage once a day
# Procedure: The bile duct ligation model is a well characterized model of liver fibrosis. Briefly, C57/BL6 wild-type mice 6 to 8 weeks of age were subjected to bile duct ligation (BDL) for 14 days: Sham-operated wild type mice were used as controls. Either RO 113-0830 or CMC (carboxymethylcellulose) were administered by gavage in a dose of 10 mg/kg body weight once a day. Hepatocyte apoptosis was quantified by the TUNEL assay and immunofluorescence for activated caspases 3/7. Liver injury was assessed by histopathology, and quantification of bile infarcts. Hepatic fibrosis was assessed by Sirius red staining and quantitative morphometry. Real-time polymerase chain reaction (PCR) was used to measure mRNA transcripts for collagen 1alpha (I) and alpha-smooth muscle actin.
# [4] = test system: male C57B1/6 mice; experiment: TNF-α model (TNFα/D-Gln), 24 hour survival; assay type: in vivo; conditions: TNFα/D-Gln insult; average from 3 studies; p=0.03 vs control (27±7.3%)
# Procedure: as §1, §2
# To determine a benefit on survival, TNF-α model, D-Galactosamine (D-Gln) (800 mg/kg) and TNF-α (20 or 40 μg/kg) were injected IP, and mice were allowed to survive for 24 hours post insult. All morbid mice were euthanized with 125 mg/kg of Nembutal IP. The average 24 hour survival from 3 studies was 27±7.3% and. 55±7.6% (p=0.03) in the TNFα/D-Gln control mice and RO-113-0830-treated mice, respectively.
# [5] = test system: Huh7 human hepatoma cell line (the 21-5 cell line); conditions: read-out: IC50 for cytotoxicity (concentration decreasing cell viability by 50%); 72 hr; host cell rRNA levels by TaqMan RT-PCR
# Description: Cells were processed 72 hr later when the cells were still sub-confluent.
# [6] = test system: full-length HCV replicon; experiment: HCV RNA replicon antiviral evaluation assay; assay type: cell-based, Hepatitis C virus; conditions: 72 hr; HCV RNA replicon levels by TaqMan RT-PCR; read-out: EC50 (concentration inhibition virus replication by 50%)
# Procedure: The assay was conducted as described by Pietschmann, T. et al., supra.
# Human interferon alpha-2b was included in each run as a positive control compound. Subconfluent cultures of the ET line were plated out into 96-well plates that were dedicated for the analysis of cell numbers (cytotoxicity) or antiviral activity and the next day drugs were added to the appropriate wells. Cells were processed 72 hr later when the cells were still sub-confluent. HCV RNA replicon levels and the toxic concentration of drug that reduces cell numbers, as indicated by host cell ribosomal RNA (rRNA) levels, were assessed by TaqMan RT-PCR. The EC50 (concentration inhibition virus replication by 50%), IC50 (concentration decreasing cell viability by 50%) and S150 (selective index: IC50/EC50) values were calculated.
compound,measurement,setting,value
O=C(NO)C1(CS(=O)(=O)c2ccc(Oc3ccc(Cl)cc3)cc2)CCOCC1 [RO-113-0830],ED50 for decrease of plasma ALT activity,[1],0.26 ± 0.08 mg/kg
same,reduction of Fas-induced elevation in plasma ALT activity,[2],50%
same,reduction of Sirius red staining of hepatic collagen,[3]; 14 days of BDL,3 fold
same,reduction in the number of bile infarcts vs vehicle treated BDL mice,"[3]; 14 days of BDL, histologic examination",> 70%
same,decrease in TUNEL-positive hepatocytes vs vehicle,"[3]; 14 days of BDL, p<0.01",3 fold
same,decrease in caspase 3/7-positive hepatocytes vs vehicle,"[3]; 14 days of BDL, p<0.01",5 fold
same,reduction of hepatic alpha-smooth muscle actin mRNA vs vehicle-treated BDL animals,"[3]; 14 days of BDL, real-time PCR",> 60%
same,reduction of hepatic collagen I mRNA vs vehicle-treated BDL animals,"[3]; 14 days of BDL, real-time PCR",> 60%
same,overall animal survival following 14 days of BDL,[3]; p<0.05,significantly enhanced
same,24 hour survival,[4],55±7.6%
same,IC50,[5],~25 µM
same,EC50,[6],0.07 µM
